Reference: US8894927B2, “Shower sterilisation system and method of use thereof” (Omnia-Klenz Ltd., priority 2010, dated 2014)
Where two headings read alike, the source gives them in different places.

Legend:
[1] = tested on: microbiological activity in shower apparatus; assay: Treatment of shower apparatus, microbiological activity / TVC; settings: solution of around 250-500 ppm
Text: The fall in TVCs or “kill” of the micro-activity following use of the first biocidal product alone or following a combination of use of the first biocidal product and second acidic sequestering product is similar but the time before significant re-inoculation is extended when the combination of the first and second compositions are used. In areas of high water hardness, the potential for re-inoculation is much higher than in areas of low water hardness and therefore the benefit of using an acidic sequestering product in combination with the biocidal product is much higher.
The biocidial composition of the present invention results in a fall in TVC from a starting level of approximately 10^5 cfu/ml to 20-500 cfu/ml.

[2] = tested on: aerobic counts of shower water; assay: Hadfield office shower head, Petrifilm aerobic count after biocide treatment; settings: for Mb. Analyses Aerobic: 0.5% solution, 30 min contact
Hepatatis = settings: against Hepatatis; cited from earlier work
Legionella pneumophilia = type: cell-based
Mycobacteria = settings: against Mycobacteria; cited from earlier work
HIV = settings: against HIV; cited from earlier work
Legionella = settings: cited from earlier work
[3] = tested on: yeast and mold counts of shower water; assay: Hadfield office shower head, Petrifilm yeast and mold count after biocide treatment; settings: 0.5% solution, 30 min contact
[4] = 555 ppm, 8 days (192 hours) since biocide first added, (1) Resting (8 days), 16 °C
[5] = 555 ppm, 8 days (192 hours) since biocide first added, (2) Shower running, 10 °C
[6] = 555 ppm, 8 days (192 hours) since biocide first added, (3) Shower running, 15 °C
[7] = 555 ppm, 8 days (192 hours) since biocide first added, (4) Shower running, 20 °C
[8] = 555 ppm, 8 days (192 hours) since biocide first added, (5) Shower running, 25 °C
[9] = 555 ppm, 8 days (192 hours) since biocide first added, (6) Shower running, 30 °C
[10] = 555 ppm, 8 days (192 hours) since biocide first added, (7) Shower running, 35 °C
[11] = 555 ppm, 8 days (192 hours) since biocide first added, (8) Shower running, 40 °C
[12] = 555 ppm, 8 days (192 hours) since biocide first added, (9) Shower running - full heat, 41 °C
[13] = 565 ppm, 24 hours after biocide addition, (1) Resting, 15 °C
[14] = 565 ppm, 24 hours after biocide addition, (2) Shower running, 10 °C
[15] = 565 ppm, 24 hours after biocide addition, (3) Shower running, 15 °C
[16] = 565 ppm, 24 hours after biocide addition, (4) Shower running, 20 °C
[17] = 565 ppm, 24 hours after biocide addition, (5) Shower running, 25 °C
[18] = 565 ppm, 24 hours after biocide addition, (6) Shower running, 30 °C
[19] = 565 ppm, 24 hours after biocide addition, (7) Shower running, 35 °C
[20] = 565 ppm, 24 hours after biocide addition, (8) Shower running, 40 °C
[21] = 565 ppm, 24 hours after biocide addition, (9) Shower running, 41 °C
[22] = 565 ppm, 48 hours after biocide addition, (1) Resting, 16 °C
[23] = 565 ppm, 48 hours after biocide addition, (2) Shower running, 10 °C
[24] = 565 ppm, 48 hours after biocide addition, (3) Shower running, 15 °C
[25] = 565 ppm, 48 hours after biocide addition, (4) Shower running, 20 °C
[26] = 565 ppm, 48 hours after biocide addition, (5) Shower running, 25 °C
[27] = 565 ppm, 48 hours after biocide addition, (6) Shower running, 30 °C
[28] = 565 ppm, 48 hours after biocide addition, (7) Shower running, 35 °C
[29] = 565 ppm, 48 hours after biocide addition, (8) Shower running, 40 °C
[30] = 565 ppm, 48 hours after biocide addition, (9) Shower running, 41 °C

## CCCCCCCCCCCCN(CCCN)CCCN [Lonzabac 12.100, N-(3-aminopropyl)-N-dodecylpropane-1,3-diamine]
[1]
  sterilisation of shower compared with 5 parts per million of BCDMH (L8 recommendations): more effective sterilisation was achieved for a longer period
[2]; [4]
  Mb. Analyses Aerobic: 10^5 cols/ml
[2]; [5]
  Mb. Analyses Aerobic: 1 cols/ml
[2]; [6]
  Mb. Analyses Aerobic: 3 cols/ml
[2]; [7]
  Mb. Analyses Aerobic: No growth
[2]; [8]
  Mb. Analyses Aerobic: No growth
[2]; [9]
  Mb. Analyses Aerobic: 9 cols/ml
[2]; [10]
  Mb. Analyses Aerobic: 1 cols/ml
[2]; [11]
  Mb. Analyses Aerobic: No growth
[2]; [12]
  Mb. Analyses Aerobic: 2 cols/ml
[2]; [13]
  Mb. Analyses Aerobic: 60 cols/ml
[2]; [14]
  Mb. Analyses Aerobic: No growth
[2]; [15]
  Mb. Analyses Aerobic: No growth
[2]; [16]
  Mb. Analyses Aerobic: No growth
[2]; [17]
  Mb. Analyses Aerobic: No growth
[2]; [18]
  Mb. Analyses Aerobic: 1 cols/ml
[2]; [19]
  Mb. Analyses Aerobic: No growth
[2]; [20]
  Mb. Analyses Aerobic: 2 cols/ml
[2]; [21]
  Mb. Analyses Aerobic: No growth
[2]; [22]
  Mb. Analyses Aerobic: 520 cols/ml
[2]; [23]
  Mb. Analyses Aerobic: 8 cols/ml
[2]; [24]
  Mb. Analyses Aerobic: 2 cols/ml
[2]; [25]
  Mb. Analyses Aerobic: No growth
[2]; [26]
  Mb. Analyses Aerobic: No growth
[2]; [27]
  Mb. Analyses Aerobic: No growth
[2]; [28]
  Mb. Analyses Aerobic: No growth
[2]; [29]
  Mb. Analyses Aerobic: 1 cols/ml
[2]; [30]
  Mb. Analyses Aerobic: No growth
[2]; before inclusion of wetting agents and other functional components
  microbiological activity 8 days after treatment (Table 2): re-established itself
Hepatatis
  concentration down to which effective: ≥ 0.05%
Legionella pneumophilia; 100 ppm biocidal active, contact time 5 minutes
  Biocidal effect: Biocidal
Legionella pneumophilia; 100 ppm biocidal active, contact time 10 minutes
  Biocidal effect: Biocidal
Legionella pneumophilia; 100 ppm biocidal active, contact time 15 minutes
  Biocidal effect: Biocidal
Legionella pneumophilia; 100 ppm biocidal active, contact time 30 minutes
  Biocidal effect: Biocidal
Legionella pneumophilia; 200 ppm biocidal active, contact time 5 minutes
  Biocidal effect: Biocidal
Legionella pneumophilia; 200 ppm biocidal active, contact time 10 minutes
  Biocidal effect: Biocidal
Legionella pneumophilia; 200 ppm biocidal active, contact time 15 minutes
  Biocidal effect: Biocidal
Legionella pneumophilia; 200 ppm biocidal active, contact time 30 minutes
  Biocidal effect: Biocidal
Legionella pneumophilia; 300 ppm biocidal active, contact time 5 minutes
  Biocidal effect: Biocidal
Legionella pneumophilia; 300 ppm biocidal active, contact time 10 minutes
  Biocidal effect: Biocidal
Legionella pneumophilia; 300 ppm biocidal active, contact time 15 minutes
  Biocidal effect: Biocidal
Legionella pneumophilia; 300 ppm biocidal active, contact time 30 minutes
  Biocidal effect: Biocidal
Legionella pneumophilia; 500 ppm biocidal active, contact time 5 minutes
  Biocidal effect: Biocidal
Legionella pneumophilia; 500 ppm biocidal active, contact time 10 minutes
  Biocidal effect: Biocidal
Legionella pneumophilia; 500 ppm biocidal active, contact time 15 minutes
  Biocidal effect: Biocidal
Legionella pneumophilia; 500 ppm biocidal active, contact time 30 minutes
  Biocidal effect: Biocidal
Legionella pneumophilia; all concentrations (100-500 ppm), contact time as short as 5 minutes
  biocidal effect, summary of Table A: biocidal to Legionella at all concentrations
Mycobacteria
  concentration down to which effective: ≥ 0.05%
HIV
  concentration down to which effective: ≥ 0.05%
Legionella
  concentration down to which effective: ≥ 0.05%
[3]; [4]
  Mb. Analyses Yeast/Mold: No growth
[3]; [5]
  Mb. Analyses Yeast/Mold: No growth
[3]; [6]
  Mb. Analyses Yeast/Mold: No growth
[3]; [7]
  Mb. Analyses Yeast/Mold: No growth
[3]; [8]
  Mb. Analyses Yeast/Mold: No growth
[3]; [9]
  Mb. Analyses Yeast/Mold: 1 yeast cols/ml
[3]; [10]
  Mb. Analyses Yeast/Mold: No growth
[3]; [11]
  Mb. Analyses Yeast/Mold: No growth
[3]; [12]
  Mb. Analyses Yeast/Mold: 1 yeast cols/ml
[3]; [13]
  Mb. Analyses Yeast/Mold: No growth
[3]; [14]
  Mb. Analyses Yeast/Mold: No growth
[3]; [15]
  Mb. Analyses Yeast/Mold: No growth
[3]; [16]
  Mb. Analyses Yeast/Mold: No growth
[3]; [17]
  Mb. Analyses Yeast/Mold: No growth
[3]; [18]
  Mb. Analyses Yeast/Mold: No growth
[3]; [19]
  Mb. Analyses Yeast/Mold: No growth
[3]; [20]
  Mb. Analyses Yeast/Mold: No growth
[3]; [21]
  Mb. Analyses Yeast/Mold: No growth
[3]; [22]
  Mb. Analyses Yeast/Mold: No growth
[3]; [23]
  Mb. Analyses Yeast/Mold: No growth
[3]; [24]
  Mb. Analyses Yeast/Mold: No growth
[3]; [25]
  Mb. Analyses Yeast/Mold: No growth
[3]; [26]
  Mb. Analyses Yeast/Mold: No growth
[3]; [27]
  Mb. Analyses Yeast/Mold: No growth
[3]; [28]
  Mb. Analyses Yeast/Mold: No growth
[3]; [29]
  Mb. Analyses Yeast/Mold: No growth
[3]; [30]
  Mb. Analyses Yeast/Mold: No growth
